Values joined by “and” are separate entries in the source; they are usually repeats but may differ in a detail not shown here. Equal entries are not always repeated. Where two headings read alike, the source gives them in different places.
Assay: Single dose pharmacokinetic study in beagle dog
Assay type: in vivo
Details: for Plasma level, Individual animals / concentration at 0.083 h / concentration at 0.25 h / concentration at 0.5 h / concentration at 1 h / concentration at 2 h / concentration at 4 h / concentration at 6 h / concentration at 8 h: male beagle dog; for concentration at 0.083 h / concentration at 0.25 h / concentration at 0.5 h / concentration at 1 h / concentration at 2 h / concentration at 4 h / concentration at 6 h / concentration at 8 h: male, beagle, dog, plasma, iv
Description: Pharmacokinetic studies were conducted in male beagle dogs and male cynomolgus monkeys at SRI International, Menlo Park, CA. General procedures for animal care and housing were in accordance with the National Research Council (NRC) Guide for the Care and Use of Laboratory Animals (1996) and the Animal Welfare Standards incorporated in 9 CFR Part 3, 1991 and complied with guidelines set forth by the ARVO Animal Statement for the Use of Animals in Ophthalmic and Vision Research. During the course of the PK experiments, cynomolgus monkeys were individually housed in stainless steel primary enclosures in an AAALAC-accredited facility. Animals were fed a commercial monkey chow, and supplemental food was provided (fresh fruits, vegetables, seeds, and nuts). Reverse osmosis-purified drinking water was available at all times. Cynomolgus monkeys were maintained on a 12:12 hour light:dark cycle at the 64–84°F temperature and 30–70% humidity. Monkeys had access to enrichment opportunities (grooming devices, foraging devices, activity panels and mirrors) and were provided auditory stimuli and human interaction enrichment throughout the study. Blood samples were collected by venipuncture of a peripheral vein. Animals were acclimated to the squeeze back mechanism in their home cage by repeated, short periods of restraint during general husbandry procedures for at least 2 weeks prior to dosing. Animal were not removed from their cages for collection, and no anesthesia/analgesic agents were used for blood collection. […] For PK experiments, beagle dogs were individually housed in enclosed run (≥ 4 ft x 6 ft). Dogs were exposed to their daily ration of food, Harlan Teklad 2025C Certified Global 25% Protein Dog Diet. Water was provided from the public water supply (municipal tap water) ad libitum. Dogs were maintained on a 12:12 hour light:dark cycle at the 72–73°F temperature and 40–71% humidity. Every effort was made to minimize, if not eliminate, pain and suffering in all animals in this study. No restraining devices were used in blood collecting procedures. Dogs were gentle hand-held to restrain by trained technicians with the dogs foreleg extended for sample collection of blood from cephalic vein. Animals were awake during blood sample collection with no anesthesia/analgesic agents used, and positive reinforcement by the technician was provided following collection. […] All dogs were released back to the colony after the study was completed. Male beagle dogs and male cynomolgus monkey received a single i.v. dose of a test compound at 0.5 mg kg^−1 (dog) and 1 mg kg^−1 (monkey) or a single p.o. dose of a test compound of at 2 mg kg^−1 (dog) and 5 mg kg^−1 (monkey). The number of animals that was used in PK experiments is 3 per study group. Intravenous administration vehicle was 3% DMA/45% PEG300/12% ethanol/40% sterile water; p.o. vehicle was 2% Tween 80 in 0.9% saline. […] Blood samples were processed to plasma. Following protein extraction with acetonitrile, compound concentrations in plasma were measured by LC-MS/MS. The plasma drug level data were analyzed using WinNonlin software package; Model 201 (for i.v. bolus administration);was used for the analysis of i.v. data, and Model 200 (for extravascular administration) was used for the analysis of the p.o. data. Aliquots of pre-dose plasma samples, as well as aliquots of plasma PK samples, were used for the analysis of the plasmabiomarker, RBP4.

%F, bioavailability (Dog, 2.0 mg kg^−1 p.o. vs 0.5 mg kg^−1 i.v.): 84.2 ± 10.4%
plasma concentrations of compound (dog plasma at 24, 36, and 48 hours after 2 mg kg^−1 oral dosing): 70 to 500 ng/mL
Plasma level, Individual animals (iv 0.5 mg/kg, 0.083 hr, 0.5 mg/kg): 2750 ng/mL and 2650 ng/mL
Plasma level, Individual animals (iv 0.5 mg/kg, 0.25 hr, 0.5 mg/kg): 2090 ng/mL and 2140 ng/mL
Plasma level, Individual animals (iv 0.5 mg/kg, 0.5 hr, 0.5 mg/kg): 1820 ng/mL and 1800 ng/mL
Plasma level, Individual animals (iv 0.5 mg/kg, 1 hr, 0.5 mg/kg): 1270 ng/mL and 1380 ng/mL
Plasma level, Individual animals (iv 0.5 mg/kg, 2 hr, 0.5 mg/kg): 1060 ng/mL and 1000 ng/mL
Plasma level, Individual animals (iv 0.5 mg/kg, 4 hr, 0.5 mg/kg): 492 ng/mL and 458 ng/mL
Plasma level, Individual animals (iv 0.5 mg/kg, 6 hr, 0.5 mg/kg): 284 ng/mL and 281 ng/mL
Plasma level, Individual animals (iv 0.5 mg/kg, 8 hr, 0.5 mg/kg): 203 ng/mL and 207 ng/mL
Plasma level, Individual animals (iv 0.5 mg/kg, 12 hr, 0.5 mg/kg): 69.2 ng/mL and 141 ng/mL and 111 ng/mL
Plasma level, Individual animals (iv 0.5 mg/kg, 24 hr, 0.5 mg/kg): 186 ng/mL and 171 ng/mL
Plasma level, Individual animals (iv 0.5 mg/kg, 36 hr, 0.5 mg/kg): 47.1 ng/mL and 42.5 ng/mL
Plasma level, Individual animals (iv 0.5 mg/kg, 48 hr, 0.5 mg/kg): 102 ng/mL and 93.0 ng/mL
Plasma level, Individual animals (po 2 mg/kg, 0.25 hr, 2 mg/kg): 9280 ng/mL and 4890 ng/mL
Plasma level, Individual animals (po 2 mg/kg, 0.5 hr, 2 mg/kg): 7730 ng/mL and 6080 ng/mL
Plasma level, Individual animals (po 2 mg/kg, 1 hr, 2 mg/kg): 6080 ng/mL and 5100 ng/mL
Plasma level, Individual animals (po 2 mg/kg, 2 hr, 2 mg/kg): 4460 ng/mL and 4300 ng/mL
Plasma level, Individual animals (po 2 mg/kg, 4 hr, 2 mg/kg): 2560 ng/mL and 2080 ng/mL
Plasma level, Individual animals (po 2 mg/kg, 8 hr, 2 mg/kg): 971 ng/mL and 885 ng/mL
Plasma level, Individual animals (po 2 mg/kg, 10 hr, 2 mg/kg): 581 ng/mL and 690 ng/mL
Plasma level, Individual animals (po 2 mg/kg, 12 hr, 2 mg/kg): 391 ng/mL and 753 ng/mL
Plasma level, Individual animals (po 2 mg/kg, 24 hr, 2 mg/kg): 542 ng/mL and 277 ng/mL
Plasma level, Individual animals (po 2 mg/kg, 36 hr, 2 mg/kg): 95.3 ng/mL and 105 ng/mL
Plasma level, Individual animals (po 2 mg/kg, 48 hr, 2 mg/kg): 152 ng/mL and 160 ng/mL and 67.0 ng/mL
concentration at 0.083 h (0.5 mg/kg, iv 0.5 mg/kg, 0.083 hr, read-out: Plasma level, Individual animals): 2660 ng/mL
concentration at 0.083 h (0.5 mg/kg, iv 0.5 mg/kg, 0.083 hr, read-out: Plasma level, Mean): 2690 ng/mL
concentration at 0.25 h (0.5 mg/kg, iv 0.5 mg/kg, 0.25 hr, read-out: Plasma level, Individual animals): 2000 ng/mL
concentration at 0.25 h (0.5 mg/kg, iv 0.5 mg/kg, 0.25 hr, read-out: Plasma level, Mean): 2080 ng/mL
concentration at 0.5 h (0.5 mg/kg, iv 0.5 mg/kg, 0.5 hr, read-out: Plasma level, Individual animals): 1690 ng/mL
concentration at 0.5 h (0.5 mg/kg, iv 0.5 mg/kg, 0.5 hr, read-out: Plasma level, Mean): 1770 ng/mL
concentration at 1 h (0.5 mg/kg, iv 0.5 mg/kg, 1 hr, read-out: Plasma level, Individual animals): 1500 ng/mL
concentration at 1 h (0.5 mg/kg, iv 0.5 mg/kg, 1 hr, read-out: Plasma level, Mean): 1380 ng/mL
concentration at 2 h (0.5 mg/kg, iv 0.5 mg/kg, 2 hr, read-out: Plasma level, Individual animals): 1020 ng/mL
concentration at 2 h (0.5 mg/kg, iv 0.5 mg/kg, 2 hr, read-out: Plasma level, Mean): 1030 ng/mL
concentration at 4 h (0.5 mg/kg, iv 0.5 mg/kg, 4 hr, read-out: Plasma level, Individual animals): 442 ng/mL
concentration at 4 h (0.5 mg/kg, iv 0.5 mg/kg, 4 hr, read-out: Plasma level, Mean): 464 ng/mL
concentration at 6 h (0.5 mg/kg, iv 0.5 mg/kg, 6 hr, read-out: Plasma level, Individual animals): 308 ng/mL
concentration at 6 h (0.5 mg/kg, iv 0.5 mg/kg, 6 hr, read-out: Plasma level, Mean): 291 ng/mL
concentration at 8 h (0.5 mg/kg, iv 0.5 mg/kg, 8 hr, read-out: Plasma level, Individual animals): 217 ng/mL
concentration at 8 h (0.5 mg/kg, iv 0.5 mg/kg, 8 hr, read-out: Plasma level, Mean): 209 ng/mL
Structure (SMILES): Cc1cc(C(=O)O)nc(N2C[C@H]3C[C@@H](c4ccccc4C(F)(F)F)C[C@H]3C2)n1 [BPN-14136]
